# Values of other authors as cited in US7612214B2, “Organic amine salts of glutamic acid derivatives and their application” (Ajinomoto Co., Inc., priority 2003, dated 2009).
# Where “and” joins values, the source holds several entries; their conditions need not be identical. Equal entries are not always repeated.
# Details: (2S,4S) isomer derived from the natural plant; literature report (Vleggaar et al.)
compound,measurement,value
"N[C@@H](C[C@@](O)(Cc1c[nH]c2ccccc12)C(=O)O)C(=O)O [(2S,4S) isomer, (2S,4S)-2-amino-4-carboxy-4-hydroxy-5-(3-indolyl)pentanoic acid]",degree of sweetness,800 times of sucrose and 1400 times of sucrose
